Measurements taken from PMC4769084, “Aminoglycoside binding and catalysis specificity of aminoglycoside 2″-phosphotransferase IVa: A thermodynamic, structural and kinetic study” (Biochimica et Biophysica Acta, 2016).
Where two headings read alike, the source gives them in different places.

Key:
[1] = target: T1, APH(2″)-IVa (Enterococcus casseliflavus, UniProt O68183); conditions: for phosphotransferase activity: confirmed at 5 μM APH(2″)-IVa, 2.5 mM ATP; for Kd/Km: ratio of ITC Kd to steady state Km; for Km / kcat: saturating MgATP (2.5 mM), aminoglycoside 0 to 100 μM, 25 °C, pH 7.5; for Km: na = no detectable activity; for kcat: na = no detectable activity (< 0.001 s^− 1), enzyme up to 5 μM
Procedure: (§1) Unless otherwise stated, kinetic experiments were carried out in a buffer that contained 50 mM Tris, 40 mM KCl, 1 mM free MgCl2 adjusted to pH 7.5 with HCl at 25 °C. In the case of experiments with CaATP, the buffer was MgCl2-free.
Steady state kinetics were carried out in thermostatically controlled beakers as already described. Unless otherwise stated, the enzyme concentration was 0.5 μM in the presence of various concentrations of aminoglycoside (5 to 100 μM). […] At regular intervals, a volume of 80 μL of the reaction mixture was sampled from the beaker and mixed in a tube containing 40 μL of perchloric acid at 10%. The precipitated protein was then removed by centrifugation at 4 °C, 20 min at 19,000 g. ADP and ATP were separated by HPLC (Waters) on an anion-exchange column (SAX-Partisphere, AIT France). The mobile phase was 200 mM ammonium phosphate–HCl buffer at pH 5.5 and 10% acetonitrile. A 100 μL volume of the quenched reaction mixture was diluted in 900 μL of buffer containing the mobile phase supplemented with 5 N KOH to readjust the pH to 5.5. Quantification of ADP and ATP was obtained by integrating HPLC peaks at 259 nm and their concentrations were reported relative to the enzyme concentration. […] For each injected sample, the concentration of ADP was calculated using the following equation, where [ATP]i is the initial ATP concentration used in the experiment:(3) ADP=ADPpeakarea×ATPi/ADPpeakarea+ATPpeakarea

[2] = target: T1, APH(2″)-IVa; test: Isothermal titration calorimetry of aminoglycoside binding
Procedure: The enzyme was extensively dialyzed against buffer containing 50 mM Tris–HCl at pH 7.5, 40 mM KCl, 1 mM MgCl2 and ligand solutions were prepared at 5 mM in the final dialysate with readjusting pH to 7.5. The enzyme was used at a final concentration of 150 μM. ITC experiments were carried out at 25 °C in a VP-ITC calorimeter (MicroCal, GE Healthcare). Titrations consisted of 40 injections of 5 μL of ligand every 300 s. The cell stirring speed was 300 rpm. To obtain reliable dissociation constants, the c-value, a unitless parameter obtained by the multiplication of the association constant and the total concentration of ligand binding sites, was kept between 1.8 and 100 for all titrations. Control runs were performed by titrating ligands to buffer, and the resulting background signal was subtracted from the corresponding experimental data. Experiments were carried out at 1 mM free Mg^2 +.
Binding and thermodynamic parameters Ka (association constant), ΔH (enthalpy change) and stoichiometry were obtained by nonlinear least-squares fitting of experimental data using a single-site binding model of the Origin software package (version 5.0) provided with the instrument. The free energy of binding (ΔG) and entropy change at 25 °C (ΔS) were obtained using the following equations:(1) ΔG=–RTlnKa (2) ΔG=ΔH–TΔS
The experiments were performed in triplicate (except with G418 and kanamycin B, in duplicate) and the error values given in the tables are standard deviations.

[3] = target: T1, APH(2″)-IVa; test: Transient kinetics, stopped–flow with MDCC-ParM ADP biosensor (free ADP); type: biochemical; conditions: 5 μM APH(2″)-IVa, 500 μM ATP, 100 μM aminoglycoside, 50 μM MDCC-ParM
Procedure: as §1
(§2) Transient kinetic experiments were carried out at 25 °C in a QFM-400 quench–flow (Bio-Logic, France) or in a SF-61 DX2 stopped–flow (TgK Scientific, UK). In the quench–flow method, APH(2″)-IVa, pre-incubated with the aminoglycoside, was mixed with ATP in the apparatus. The mixtures were aged for specific times (from 8 ms to several seconds), quenched in 10% perchloric acid and the ADP and ATP measured by HPLC, as described above. Because perchloric acid dissociates all non-covalent complexes, by this method, concentrations in the reaction mixtures of total ADP, that is to say enzyme-bound ADP plus free ADP, are obtained. In the stopped–flow experiments, a free ADP fluorescent biosensor, MDCC-ParM [28], was included in the ATP solution. By this method, concentrations in the reaction mixtures of free ADP only are obtained. Experiments were carried out as previously described for APH(3′)-IIIa.

[4] = system: APH(2″)-IVa; design: method as in Toth et al. [5]; conditions: values in brackets, coupled enzyme system; ref Toth et al. [5]; cited from earlier work
[5] = target: T1, APH(2″)-IVa; test: Transient kinetics, rapid quench–flow (total ADP); type: biochemical; conditions: 5 μM APH(2″)-IVa, 500 μM ATP, 100 μM aminoglycoside; for Aburst: ± standard error of fit
Procedure: as §1, §2

[6] = system: NC[C@H]1O[C@H](O[C@H]2[C@H](O)[C@@H](O[C@H]3O[C@H](CO)[C@@H](O)[C@H](N)[C@H]3O)[C@H](N)C[C@@H]2N)[C@H](N)C[C@@H]1O; test: purified protein, by the assay type; conditions: other: saturating MgATP (2.5 mM), aminoglycoside 0 to 100 μM, 25 °C, pH 7.5, na = no detectable activity
Procedure: (§3) Steady state kinetics were carried out in thermostatically controlled beakers as already described [27]. Unless otherwise stated, the enzyme concentration was 0.5 μM in the presence of various concentrations of aminoglycoside (5 to 100 μM). […] Reactions were initiated by adding a saturating concentration of ATP (2.5 mM) in a thermostatically controlled beaker containing APH(2″)-IVa and aminoglycoside. At regular intervals, a volume of 80 μL of the reaction mixture was sampled from the beaker and mixed in a tube containing 40 μL of perchloric acid at 10%. The precipitated protein was then removed by centrifugation at 4 °C, 20 min at 19,000 g. ADP and ATP were separated by HPLC (Waters) on an anion-exchange column (SAX-Partisphere, AIT France). The mobile phase was 200 mM ammonium phosphate–HCl buffer at pH 5.5 and 10% acetonitrile. A 100 μL volume of the quenched reaction mixture was diluted in 900 μL of buffer containing the mobile phase supplemented with 5 N KOH to readjust the pH to 5.5. Quantification of ADP and ATP was obtained by integrating HPLC peaks at 259 nm and their concentrations were reported relative to the enzyme concentration. Concentrations (in the quenched reaction mixtures) between 0.5 and 500 μM of ADP or ATP gave a linear and equivalent OD259 response. For each injected sample, the concentration of ADP was calculated using the following equation, where [ATP]i is the initial ATP concentration used in the experiment:(3) ADP=ADPpeakarea×ATPi/ADPpeakarea+ATPpeakarea

[7] = system: CN[C@@H]1[C@@H](O)[C@@H](O[C@@H]2[C@@H](O)[C@H](O[C@H]3OC(CN)=CC[C@H]3N)[C@@H](N)C[C@H]2N)OC[C@]1(C)O; test: purified protein, by the assay type; conditions: other: saturating MgATP (2.5 mM), aminoglycoside 0 to 100 μM, 25 °C, pH 7.5, na = no detectable activity
Procedure: as §3

[8] = system: NC[C@H]1O[C@H](O[C@H]2[C@H](O)[C@@H](O[C@H]3O[C@H](CO)[C@@H](O)[C@H](N)[C@H]3O)[C@H](N)C[C@@H]2N)[C@H](N)[C@@H](O)[C@@H]1O; test: purified protein, by the assay type; conditions: other: saturating MgATP (2.5 mM), aminoglycoside 0 to 100 μM, 25 °C, pH 7.5, na = no detectable activity
Procedure: as §3

T1 sequence (O68183 entry or part of it): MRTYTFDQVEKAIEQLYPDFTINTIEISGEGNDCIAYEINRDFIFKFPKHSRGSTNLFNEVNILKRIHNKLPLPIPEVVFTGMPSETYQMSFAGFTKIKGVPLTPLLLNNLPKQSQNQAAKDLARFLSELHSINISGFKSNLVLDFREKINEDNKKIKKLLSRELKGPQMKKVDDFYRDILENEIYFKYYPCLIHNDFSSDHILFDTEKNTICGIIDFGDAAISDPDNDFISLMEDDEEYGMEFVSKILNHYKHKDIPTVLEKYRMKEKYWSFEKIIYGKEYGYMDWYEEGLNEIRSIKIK

Compound	Kd [2] [µM]	klag [3] [s^− 1]	kss [3] [s^− 1]	Km [4] [µM]	kcat [4]	Kd/Km [1]	kburst [5] [s^− 1]	kss [5] [s^− 1]	Aburst [5] [mol/mol]	other results
NC[C@@H]1O[C@H](O[C@H]2[C@@H](O)[C@H](O[C@@H]3[C@@H](O)[C@H](N)C[C@H](N)[C@H]3O[C@H]3O[C@H](CO)[C@@H](O)[C@H](O)[C@H]3N)O[C@@H]2CO)[C@H](N)[C@@H](O)[C@@H]1O [Paromomycin]	63.6 ± 29	–	–	–	–	–	–	–	–	phosphotransferase activity [1]: absence of activity
NC[C@H]1O[C@H](O[C@H]2[C@H](O)[C@@H](O[C@H]3O[C@H](CO)[C@@H](O)[C@H](N)[C@H]3O)[C@H](N)C[C@@H]2N)[C@H](N)C[C@@H]1O [Tobramycin]	3.9 ± 0.6	3.3 ± 0.1	1.05 ± 0.01	1.5	(1.80 ± 0.03) s^− 1	0.3	2.1 ± 0.4	1.08 ± 0.02	0.44 ± 0.05	affinity of the apoprotein, times greater than for kanamycin A and for amikacin ([2]; ITC Kd comparison): 20 times
NCC[C@H](O)C(=O)N[C@@H]1C[C@H](N)[C@@H](O[C@H]2O[C@H](CN)[C@@H](O)[C@H](O)[C@H]2O)[C@H](O)[C@H]1O[C@H]1O[C@H](CO)[C@@H](O)[C@H](N)[C@H]1O [Amikacin]	82.2 ± 8.9	–	–	98	(0.15 ± 0.01) s^− 1	–	–	–	–	phosphotransferase activity [1]: absence of activity
APH(2″)-IVa (Enterococcus casseliflavus)	–	–	–	–	–	–	–	–	–	Km [6]: 13.2 ± 2.2 µM; kcat [6]: 1.64 ± 0.08 s^− 1; kcat/Km [6]: 0.124 μM^− 1 s^− 1; Km [7]: 3.5 ± 0.6 µM; kcat [7]: 0.73 ± 0.02 s^− 1; kcat/Km [7]: 0.209 μM^− 1 s^− 1; Km [8]: 12.5 ± 2.9 µM; kcat [8]: 1.69 ± 0.11 s^− 1; kcat/Km [8]: 0.135 μM^− 1 s^− 1
CN[C@@H]1[C@@H](O)[C@@H](O[C@@H]2[C@@H](O)[C@H](O[C@H]3O[C@H]([C@@H](C)O)[C@@H](O)[C@H](O)[C@H]3N)[C@@H](N)C[C@H]2N)OC[C@]1(C)O [G418]	–	1.6 ± 0.1	0.33 ± 0.01	–	–	12.5	2.0 ± 1.1	0.35 ± 0.04	0.34 ± 0.11	Km [1]: 2.2 ± 0.4 µM; kcat [1]: 0.49 ± 0.01 s^− 1; Kd ([2]; read-out: Kd): 27.5 ± 3.3 µM
CN[C@@H]1[C@@H](O)[C@@H](O[C@@H]2[C@@H](O)[C@H](O[C@H]3OC(CN)=CC[C@H]3N)[C@@H](N)C[C@H]2N)OC[C@]1(C)O [Sisomicin]	2.3 ± 1.6	1.6 ± 0.1	0.48 ± 0.01	–	–	0.7	2.0 ± 0.4	0.50 ± 0.02	0.48 ± 0.07	–
CNC(C)C1CCC(N)C(OC2C(N)CC(N)C(OC3OCC(C)(O)C(NC)C3O)C2O)O1 (centres unmarked) [Gentamicin]	9.7 ± 5	–	–	–	–	2.9	–	–	–	Km [1]: 3.3 ± 0.6 µM; kcat [1]: 0.47 ± 0.01 s^− 1
Kanamycin A	–	3.4 ± 0.1	0.70 ± 0.01	3.3	(0.92 ± 0.01) s^− 1	20.0	3.4 ± 0.7	0.77 ± 0.02	0.38 ± 0.04	steady state rate constant ([1]; 0.5 μM APH(2″)-IVa, 100 μM kanamycin A, 100 μM MgATP): 0.23 s^− 1; steady state rate constant ([1]; 0.5 μM APH(2″)-IVa, 100 μM kanamycin A, 200 μM MgATP): 0.37 s^− 1; kss, CaATP phosphotransferase activity ([1]; 0.5 μM APH(2″)-IVa, 100 μM kanamycin A, 2 mM CaATP): 0.092 s^− 1; kss, MgATP phosphotransferase activity ([1]; 0.5 μM APH(2″)-IVa, 100 μM kanamycin A, 2 mM MgATP): 0.84 s^− 1; Km, fold lower compared with tobramycin ([1]; in the presence of ATP): 3.3 fold; Kd/Km ([1]; listed as kanamycin A): 20; Kd, fold larger compared to tobramycin ([2]; ITC Kd comparison): 20 fold
NC[C@H]1O[C@H](O[C@H]2[C@H](O)[C@@H](O[C@H]3O[C@H](CO)[C@@H](O)[C@H](N)[C@H]3O)[C@H](N)C[C@@H]2N)[C@H](N)[C@@H](O)[C@@H]1O [Kanamycin B]	5.7 ± 1.1	–	–	–	–	0.5	–	–	–	–
